From patent US9587187B2, “Alkyl trityl phenyl ethers” (Rohm and Haas Company, priority 2013, dated 2017)

Assay: Solubility studies of alkyl trityl phenyl ethers in solvents at −10° C.
Assay type: physicochemical
Conditions: freezer at −10° C., checked daily for crystallization
Method: Solubility Studies: The solubility properties of the alkyl trityl phenyl ethers were determined by mixing 0.1 grams of test sample with 0.9 grams of solvent. The mixtures were warmed to 60° C. for a few minutes to make homogeneous solutions. The solutions were cooled back to room temperature, and then they were placed into a freezer at −10° C. The solutions were checked daily to see if crystallization had occurred. The solvents evaluated were ADVASOL 200H (mixed aromatics solvent from Advanced Aromatics), ADVASOL 200H ND (naphthalene-depleted mixed aromatics solvent from Advanced Aromatics), cyclohexanone, and o-sec-butyl phenol (OSBP).

[1] = 10 wt.% alkyl trityl phenyl ether in 200H - OSBP (75:25, w:w)
[2] = 10 wt.% alkyl trityl phenyl ether in 200H - cyclohexanone (75:25, w:w)
[3] = 10 wt.% alkyl trityl phenyl ether in 200H ND - OSBP (75:25, w:w)
[4] = 10 wt.% alkyl trityl phenyl ether in 200H ND - cyclohexanone (75:25, w:w)

Row | SMILES | Solubility at −10° C., Days (10 wt.% alkyl trityl phenyl ether in 200H (ADVASOL 200H mixed aromatics solvent)) | Solubility at −10° C., Days [1] | Solubility at −10° C., Days [2] | Solubility at −10° C., Days (10 wt.% alkyl trityl phenyl ether in 200H ND (naphthalene-depleted mixed aromatics solvent)) | Solubility at −10° C., Days [3] | Solubility at −10° C., Days [4]
1 | CCCCCCCCCCOc1ccc(C(c2ccccc2)(c2ccccc2)c2ccc(C)cc2)cc1C(C)CC (stereo not drawn) [pMS4-10] | Soluble after 7 days | Soluble after 7 days | Soluble after 7 days | Soluble after 7 days | Soluble after 7 days | Soluble after 7 days
2 | CCCCCCOc1ccc(C(c2ccccc2)(c2ccccc2)c2ccc(C)cc2)cc1OCCCCCC [pM3,4-6, ((3,4-Bis(hexyloxy)phenyl)(p-tolyl)methylene)dibenzene] |  | Soluble after 76 days | Soluble after 7 days |  | Soluble after 76 days | Soluble after 7 days
3 | CCCCCCCCCCOc1ccc(C(c2ccccc2)(c2cccc(C)c2)c2cccc(C)c2)cc1C(C)CC (stereo not drawn) [mmMS4-10] |  | Soluble after 102 | Soluble after 102 |  |  | 
